Experiments:
SeAP reporter gene = test: Circulating SeAP after intramuscular injection and electrotransfer of plasmids into tibialis cranialis muscle of SCID mice; type: in vivo
Description: The 6-week-old SCID mice were first anesthetized with a Ketamine/Xylazine mixture (250 μl/mouse). The various plasmids in solution in 150 mM NaCl were then injected intramuscularly into the tibialis cranialis muscle of the mice. […] The amount of circulating SeAP was regularly monitored by taking blood samples and assaying the phosphatase activity using the Phospha-Light kit (Tropix).

[1] = system: SeAP reporter gene (plasmid pRDA02); test: SeAP expression in C2C12 cells, hPPARγ2 inducible system; type: cell-based, murine; settings: ratios of columns 3 and 4; 5 and 6; 7 and 8, FIG. 24; BRL49653 at 10^-7 M final
Description: FIG. 24: Measurement of the expression of SeAP 5 days after transfection in C2C12 cells with the following plasmids, with and without the chemical inducer BRL49653 at 10^-7 M final:
The cells used were NIHT3T3 murine fibroblasts (ATCC: CRL-1658). These cells were seeded 24 h before transfection, in 6- or 24-well plates, at a density of 5×10^4 cells/well in 1 ml of medium, or of 2.5×10^5 cells/well in 2 ml. The culture medium used was DMEM™ medium (Life Technologies Inc.) supplemented with 10% of calf serum. The cell cultures were incubated in an incubator at 37° C. in a humid atmosphere and under a partial CO2 pressure of 5%. The transfections were carried out approximately 24 h after seeding, when 50 to 80% confluence was obtained. C2C12 cells were murine myoblast cells (ATCC: CRL1772) and were cultured on a DMEM™ medium (Life Technologies Inc.) supplemented with 10% of fetal calf serum to which L-glutamine, 2 mM final, and antibiotics, 50 units final of penicillin and 50 μg/ml of streptomycin, were added.

CN1CCN(c2ccc3[nH]c(-c4ccc5[nH]c(-c6ccc(O)cc6)nc5c4)nc3c2)CC1
SeAP activity with aptamer ligand (SeAP reporter gene; pXL3010+pSeAPaptazyme, 400 mg/l via the drinking water, Example 14): restored to a significant level

CN(CCOc1ccc(CC2SC(=O)NC2=O)cc1)c1ccccn1 (stereo not drawn) [BRL fibrate, rosiglitazone]
inducibility of the expression of SeAP in the presence of the antisense transcript [1]: a certain inducibility

NC[C@@H]1O[C@H](O[C@H]2[C@@H](O)[C@H](O[C@@H]3[C@@H](O)[C@H](N)C[C@H](N)[C@H]3O[C@H]3O[C@H](CN)[C@@H](O)[C@H](O)[C@H]3N)O[C@@H]2CO)[C@H](N)[C@@H](O)[C@@H]1O [neomycin B]
expression of SeAP with aptamer ligand (SeAP reporter gene; pXL3010+pSeAPaptamerAS, IP injection approximately 500 μg/mouse, Example 13): can be restored

Reference: US20020166132A1, “System for regulating in vivo the expression of a transgene by conditional inhibition” (priority 2000, published 2002)
